This test has as its target T1, human GHRH receptor (hGHRHR) (Homo sapiens, UniProt Q02643).
T1 construct: expressed in transfected cells; host or cells: Human 293 cells
T1 sequence (Q02643 23-423): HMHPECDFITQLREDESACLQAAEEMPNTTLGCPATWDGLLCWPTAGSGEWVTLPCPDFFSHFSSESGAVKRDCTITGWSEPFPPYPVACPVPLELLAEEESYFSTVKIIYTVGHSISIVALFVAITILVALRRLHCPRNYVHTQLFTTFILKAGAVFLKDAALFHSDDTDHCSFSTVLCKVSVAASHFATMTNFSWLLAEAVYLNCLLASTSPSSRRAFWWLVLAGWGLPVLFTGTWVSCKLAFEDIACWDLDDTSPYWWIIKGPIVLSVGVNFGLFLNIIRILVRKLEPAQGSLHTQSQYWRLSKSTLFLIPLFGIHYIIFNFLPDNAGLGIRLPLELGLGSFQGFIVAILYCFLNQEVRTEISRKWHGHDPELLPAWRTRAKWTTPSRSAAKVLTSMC
Description: GHRHR agonism measured by cAMP (HTRF) in human 293 cells expressing hGHRHR.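 Note: receptor expressed transiently or stably, cells stimulated in serum-free medium, EC50 from a non-linear dose-response fit, maximal response defined by reference GHRH stimulation.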 In kind it is cell-based. Conditions: 30 min at RT.

Structures are written as SMILES. Where a SMILES comes first, the peptide text is derived from it. Bridges are numbered along the chain shown (N, C = ends). [ ]: non-standard residue; d: D form. NMeY = CN[C@@H](Cc1ccc(O)cc1)C(=O)O; R8 = C=CCCCCCC[C@@](C)(N)C(=O)O; S5 = C=CCCC[C@](C)(N)C(=O)O; Nle = CCCC[C@H](N)C(=O)O

As usually defined, the EC50 is the midpoint of the concentration-response curve. Higher therefore signals weaker potency.

Description: GHRH (1-29) and cross-linked peptidomimetic macrocycles were tested for agonism at the human GHRH receptor (hGHRHR) at various concentrations. Human 293 cells transiently or stably expressing hGHRHR were detached from cell culture flasks with versene (Life Technologies™), suspended in serum-free medium (50 k cells/assay point), and stimulated for 30 min at RT with GHRH (1-29) (Bachem™) or cross-linked peptidomimetic macrocycles. cAMP was quantified using an HTRF®-based assay (CisBio) and used according to the manufacturer's instructions. An EC50 for each agonist was calculated from a non-linear fit of response vs dose (GraphPad™ Prism). The maximum response was determined by stimulating with 10 μM GHRH (1-29). (+=>50 nm; ++=>25-50 nm; +++=>10-25 nm; ++++=>1-10 nm; +++++=≤1 nm).

With `CCCC[C@H](NC(=O)[C@@H](NC(=O)[C@H](CC(=O)O)NC(=O)[C@H](CCC(N)=O)NC(=O)[C@H](CC(C)C)NC(=O)[C@H](CC(C)C)NC(=O)[C@H](CCCCN)NC(=O)[C@H](CCCNC(=N)N)NC(=O)[C@]1(C)CCCC=CCCCCCC[C@@](C)(NC(=O)[C@H](CCCNC(=N)N)NC(=O)[C@H](Cc2ccc(O)cc2)NC(=O)[C@H](CO)NC(=O)[C@H](CC(N)=O)NC(=O)[C@@H](NC(=O)[C@H](Cc2ccccc2)NC(=O)[C@@H](NC(=O)[C@H](C)NC(=O)[C@H](CC(=O)O)NC(=O)[C@@H](C)NC(=O)[C@@H](N)Cc2ccc(O)cc2)[C@@H](C)CC)[C@@H](C)O)C(=O)N[C@@H](C(C)C)C(=O)N[C@@H](CC(C)C)C(=O)NCC(=O)N[C@@H](CCC(N)=O)C(=O)N[C@@H](CC(C)C)C(=O)N[C@@H](CO)C(=O)N1)[C@@H](C)CC)C(=O)N[C@@H](CO)C(=O)N[C@@H](CCCNC(=N)N)C(N)=O` [SP-4] (H-Y[dA]DAIFTNSYR[R8]VLGQLS[S5]RKLLQDI[Nle]SR-NH2; staple 12-19), the EC50 fell in the range of 10 to 25 nM.

Consider `CCCC[C@H](NC(=O)[C@@H](NC(=O)[C@H](CC(=O)O)NC(=O)[C@H](CCC(N)=O)NC(=O)[C@H](CC(C)C)NC(=O)[C@H](CC(C)C)NC(=O)[C@H](CCCCN)NC(=O)[C@H](CCCNC(=N)N)NC(=O)[C@H](C)NC(=O)[C@H](CO)NC(=O)[C@H](CC(C)C)NC(=O)[C@H](CCC(N)=O)NC(=O)[C@H](C)NC(=O)[C@H](CC(C)C)NC(=O)[C@@H](NC(=O)[C@H](CCCCN)NC(=O)[C@H](CCCNC(=N)N)NC(=O)[C@H](Cc1ccc(O)cc1)NC(=O)[C@H](CO)NC(=O)[C@H](CC(N)=O)NC(=O)[C@@H](NC(=O)[C@H](Cc1ccccc1)NC(=O)[C@@H](NC(=O)[C@H](C)NC(=O)[C@H](CC(=O)O)NC(=O)[C@H](C)NC(=O)[C@@H](N)Cc1ccc(O)cc1)[C@@H](C)CC)[C@@H](C)O)C(C)C)[C@@H](C)CC)C(=O)N[C@@H](CO)C(=O)N[C@@H](CCCNC(=N)N)C(N)=O` [SP-5] (H-YADAIFTNSYRKVLAQLSARKLLQDI[Nle]SR-NH2), for which the EC50 lay in the range of 1 to 10 nM. Take `CCCC[C@H](NC(=O)[C@@H](NC(=O)[C@H](CC(=O)O)NC(=O)[C@H](CCC(N)=O)NC(=O)[C@H](CC(C)C)NC(=O)[C@H](C)NC(=O)[C@H](CCCCN)NC(=O)[C@H](CCCNC(=N)N)NC(=O)[C@H](C)NC(=O)[C@H](CO)NC(=O)[C@H](CC(C)C)NC(=O)[C@H](CCC(N)=O)NC(=O)[C@H](C)NC(=O)[C@H](CC(C)C)NC(=O)[C@@H](NC(=O)[C@]1(C)CCCC=CCCC[C@](C)(NC(=O)[C@@H](NC(=O)[C@H](Cc2ccccc2)NC(=O)[C@@H](NC(=O)[C@H](C)NC(=O)[C@H](CC(=O)O)NC(=O)[C@H](C)NC(=O)[C@H](Cc2ccc(O)cc2)NC)[C@@H](C)CC)[C@@H](C)O)C(=O)N[C@@H](CO)C(=O)N[C@@H](Cc2ccc(O)cc2)C(=O)N[C@@H](CCCNC(=N)N)C(=O)N1)C(C)C)[C@@H](C)CC)C(=O)N[C@@H](CO)C(=O)N[C@@H](CCCNC(=N)N)C(N)=O` [SP-9] (H-[NMeY]ADAIFT[S5]SYR[S5]VLAQLSARKALQDI[Nle]SR-NH2; staple 8-12): the EC50 was 1 to 10 nM. For `CCCC[C@H](NC(=O)[C@@H](NC(=O)[C@H](CC(=O)O)NC(=O)[C@H](CCC(N)=O)NC(=O)[C@H](CC(C)C)NC(=O)[C@H](C)NC(=O)[C@H](CCCCN)NC(=O)[C@H](CCCNC(=N)N)NC(=O)[C@H](C)NC(=O)[C@H](CO)NC(=O)[C@H](CC(C)C)NC(=O)[C@H](CCC(N)=O)NC(=O)[C@H](C)NC(=O)[C@H](CC(C)C)NC(=O)[C@]1(C)CCCC=CCCC[C@](C)(NC(=O)[C@H](C)NC(=O)[C@@H](NC(=O)[C@H](Cc2ccccc2)NC(=O)[C@@H](NC(=O)[C@H](C)NC(=O)[C@H](CC(=O)O)NC(=O)[C@H](C)NC(=O)[C@H](Cc2ccc(O)cc2)NC)[C@@H](C)CC)[C@@H](C)O)C(=O)N[C@@H](Cc2ccc(O)cc2)C(=O)N[C@@H](CCCNC(=N)N)C(=O)N[C@@H](CCCCN)C(=O)N1)[C@@H](C)CC)C(=O)N[C@@H](CO)C(=O)N[C@@H](CCCNC(=N)N)C(N)=O` [SP-10] (H-[NMeY]ADAIFTA[S5]YRK[S5]LAQLSARKALQDI[Nle]SR-NH2; staple 9-13) the value was 1 to 10 nM; for `CCCC[C@H](NC(=O)[C@@H](NC(=O)[C@H](CC(=O)O)NC(=O)[C@H](CCC(N)=O)NC(=O)[C@H](CC(C)C)NC(=O)[C@H](C)NC(=O)[C@H](CCCCN)NC(=O)[C@H](CCCNC(=N)N)NC(=O)[C@H](C)NC(=O)[C@H](CO)NC(=O)[C@H](CC(C)C)NC(=O)[C@]1(C)CCCC=CCCC[C@](C)(NC(=O)[C@H](CCCNC(=N)N)NC(=O)[C@H](Cc2ccc(O)cc2)NC(=O)[C@H](CO)NC(=O)[C@H](C)NC(=O)[C@@H](NC(=O)[C@H](Cc2ccccc2)NC(=O)[C@@H](NC(=O)[C@H](C)NC(=O)[C@H](CC(=O)O)NC(=O)[C@H](C)NC(=O)[C@H](Cc2ccc(O)cc2)NC)[C@@H](C)CC)[C@@H](C)O)C(=O)N[C@@H](C(C)C)C(=O)N[C@@H](CC(C)C)C(=O)N[C@@H](C)C(=O)N1)[C@@H](C)CC)C(=O)N[C@@H](CO)C(=O)N[C@@H](CCCNC(=N)N)C(N)=O` [SP-11] (H-[NMeY]ADAIFTASYR[S5]VLA[S5]LSARKALQDI[Nle]SR-NH2; staple 12-16), 10 to 25 nM. Regarding `CCCC[C@H](NC(=O)[C@@H](NC(=O)[C@H](CC(=O)O)NC(=O)[C@H](CCC(N)=O)NC(=O)[C@H](CC(C)C)NC(=O)[C@H](C)NC(=O)[C@H](CCCCN)NC(=O)[C@H](CCCNC(=N)N)NC(=O)[C@H](C)NC(=O)[C@]1(C)CCCC=CCCC[C@](C)(NC(=O)[C@@H](NC(=O)[C@H](CCCCN)NC(=O)[C@H](CCCNC(=N)N)NC(=O)[C@H](Cc2ccc(O)cc2)NC(=O)[C@H](CO)NC(=O)[C@H](C)NC(=O)[C@@H](NC(=O)[C@H](Cc2ccccc2)NC(=O)[C@@H](NC(=O)[C@H](C)NC(=O)[C@H](CC(=O)O)NC(=O)[C@H](C)NC(=O)[C@H](Cc2ccc(O)cc2)NC)[C@@H](C)CC)[C@@H](C)O)C(C)C)C(=O)N[C@@H](C)C(=O)N[C@@H](CCC(N)=O)C(=O)N[C@@H](CC(C)C)C(=O)N1)[C@@H](C)CC)C(=O)N[C@@H](CO)C(=O)N[C@@H](CCCNC(=N)N)C(N)=O` [SP-13] (H-[NMeY]ADAIFTASYRKV[S5]AQL[S5]ARKALQDI[Nle]SR-NH2; staple 14-18), the EC50 is 10 to 25 nM. For `CCCC[C@H](NC(=O)[C@@H](NC(=O)[C@H](CC(=O)O)NC(=O)[C@H](CCC(N)=O)NC(=O)[C@H](CC(C)C)NC(=O)[C@H](C)NC(=O)[C@H](CCCCN)NC(=O)[C@H](CCCNC(=N)N)NC(=O)[C@]1(C)CCCC=CCCC[C@](C)(NC(=O)[C@H](CC(C)C)NC(=O)[C@@H](NC(=O)[C@H](CCCCN)NC(=O)[C@H](CCCNC(=N)N)NC(=O)[C@H](Cc2ccc(O)cc2)NC(=O)[C@H](CO)NC(=O)[C@H](C)NC(=O)[C@@H](NC(=O)[C@H](Cc2ccccc2)NC(=O)[C@@H](NC(=O)[C@H](C)NC(=O)[C@H](CC(=O)O)NC(=O)[C@H](C)NC(=O)[C@H](Cc2ccc(O)cc2)NC)[C@@H](C)CC)[C@@H](C)O)C(C)C)C(=O)N[C@@H](CCC(N)=O)C(=O)N[C@@H](CC(C)C)C(=O)N[C@@H](CO)C(=O)N1)[C@@H](C)CC)C(=O)N[C@@H](CO)C(=O)N[C@@H](CCCNC(=N)N)C(N)=O` [SP-14] (H-[NMeY]ADAIFTASYRKVL[S5]QLS[S5]RKALQDI[Nle]SR-NH2; staple 15-19) the value was 1 to 10 nM; for `CCCC[C@H](NC(=O)[C@@H](NC(=O)[C@H](CC(=O)O)NC(=O)[C@H](CCC(N)=O)NC(=O)[C@H](CC(C)C)NC(=O)[C@H](C)NC(=O)[C@]1(C)CCCC=CCCC[C@](C)(NC(=O)[C@H](CCC(N)=O)NC(=O)[C@H](C)NC(=O)[C@H](CC(C)C)NC(=O)[C@@H](NC(=O)[C@H](CCCCN)NC(=O)[C@H](CCCNC(=N)N)NC(=O)[C@H](Cc2ccc(O)cc2)NC(=O)[C@H](CO)NC(=O)[C@H](C)NC(=O)[C@@H](NC(=O)[C@H](Cc2ccccc2)NC(=O)[C@@H](NC(=O)[C@H](C)NC(=O)[C@H](CC(=O)O)NC(=O)[C@H](C)NC(=O)[C@H](Cc2ccc(O)cc2)NC)[C@@H](C)CC)[C@@H](C)O)C(C)C)C(=O)N[C@@H](CO)C(=O)N[C@@H](C)C(=O)N[C@@H](CCCNC(=N)N)C(=O)N1)[C@@H](C)CC)C(=O)N[C@@H](CO)C(=O)N[C@@H](CCCNC(=N)N)C(N)=O` [SP-15] (H-[NMeY]ADAIFTASYRKVLAQ[S5]SAR[S5]ALQDI[Nle]SR-NH2; staple 17-21), at most 1 nM. Then `CCCC[C@H](NC(=O)[C@@H](NC(=O)[C@H](CC(=O)O)NC(=O)[C@H](CCC(N)=O)NC(=O)[C@H](CC(C)C)NC(=O)[C@]1(C)CCCC=CCCC[C@](C)(NC(=O)[C@H](CC(C)C)NC(=O)[C@H](CCC(N)=O)NC(=O)[C@H](C)NC(=O)[C@H](CC(C)C)NC(=O)[C@@H](NC(=O)[C@H](CCCCN)NC(=O)[C@H](CCCNC(=N)N)NC(=O)[C@H](Cc2ccc(O)cc2)NC(=O)[C@H](CO)NC(=O)[C@H](C)NC(=O)[C@@H](NC(=O)[C@H](Cc2ccccc2)NC(=O)[C@@H](NC(=O)[C@H](C)NC(=O)[C@H](CC(=O)O)NC(=O)[C@H](C)NC(=O)[C@H](Cc2ccc(O)cc2)NC)[C@@H](C)CC)[C@@H](C)O)C(C)C)C(=O)N[C@@H](C)C(=O)N[C@@H](CCCNC(=N)N)C(=O)N[C@@H](CCCCN)C(=O)N1)[C@@H](C)CC)C(=O)N[C@@H](CO)C(=O)N[C@@H](CCCNC(=N)N)C(N)=O` [SP-16] (H-[NMeY]ADAIFTASYRKVLAQL[S5]ARK[S5]LQDI[Nle]SR-NH2; staple 18-22), with 1 to 10 nM.

Source of the values: patent publication US20180371044A1, “PEPTIDOMIMETIC MACROCYCLES” (Aileron Therapeutics, Inc., priority 2015, published 2018).
